# Measurements: US20090018146A1, “Combination Therapy with Triterpenoid Compounds and Proteasome Inhibitors” (Research Development Corporation, priority 2005, published 2009)
# Residues, ends and D or L forms follow the SMILES beside them. *: point of attachment. Cbz = O=C(OCc1ccccc1)*; CH2F = FC*
# Tests used:
# [1] = tested on: his-ub-Hsp70; test: In vivo ubiquitination of Hsp70 in his-ub transfected Jurkat cells; type: cell-based, human; settings: lactacystin 10 μM 30 minutes pretreatment, then avicin D 4 hours
# Description: Jurkat T-cells were transfected with a plasmid pDG268 that expresses a fusion protein of histidine-tagged human ubiquitin and enhanced GFP. Transfection was performed using μm ax a Biosystems kit and their protocol. After 24 hours of transfection, cells were harvested, resuspended at a density of 10^6 cells/ml before treatment with lactacystin or avicin D.
# Jurkat T cells transfected with the his-ub plasmid construct were treated with lactacystin (10 μM) or with avicin D (1 μM) for 4 hours. Cells were harvested and CE prepared as described above. […] The affinity purified histidine-tagged proteins were separated on SDS-PAGE and analyzed on western blots for ub-Hsp70 proteins.
# [2] = tested on: Hsp90; test: Western blot of Hsp90 protein in avicin D treated Jurkat cells; type: cell-based, human; settings: lactacystin 10 μM 30 minutes, then avicin D 4 hours
# Description: (§1) Jurkat T cells (2 μg/ml=1 μM), U-937 (4 μg/ml), MJ (5 μg/ml), and HH cells (2.5 μg/ml) were treated for 0-24 hours with the indicated concentrations of avicin D. PBLs from the patients or normal blood were treated with 5 μg/ml of avicin D for 24 hours.
# (§2) At the end of treatments, cells were harvested, washed with sterile ice-cold PBS and cytoplasmic extracts (CE) were prepared by lysing the cells in CE buffer containing 10 mM Hepes-Cl pH 7.5, 10 mM KCl, 0.1 mM EDTA, 0.1 mM EGTA, 0.3% NP40, and a protease inhibitor cocktail (Sigma). After centrifugation and separating the supernatant (CE proteins), the pellet was resuspended in a buffer containing 20 mM Hepes-Cl, 400 mM NaCl, 1 mM EDTA, 1 mM EGTA, and protease inhibitor cocktail (Sigma). The nuclear protein extraction proceeded for 30 min. on ice followed by centrifugation at 14,000 rpm for 5 min at 4° C. The clear supernatant containing nuclear proteins (NE) was collected, glycerol (10%) was added, and proteins stored at −80° C. until use.
# SDS-PAGE and immunoblot procedures were essentially performed as described (Sambrook, 1989). […] Protein bands were detected using the ECL chemiluminescence kit from Amersham as per the manufacturer's protocol.
# (§3) Quantitation of proteins (western) and transcripts (RT-PCR) was performed using the NIH 1.61 image software.
# [3] = tested on: XIAP; test: Western blot of XIAP protein in Jurkat cells; type: cell-based, human
# Description: as §1, §2
# (§4) SDS-PAGE and immunoblot procedures were essentially performed as described (Sambrook, 1989). Briefly, cytoplasmic and nuclear proteins were resolved on SDS-PAGE, blotted on PVDF membranes (BioRad) and probed with various antibodies followed with anti-rabbit, anti-mouse antibody conjugated to horseradish peroxidase (HRP) from BioRad or HRP conjugated anti-goat antibody from Santa Cruz Biotechnology, corresponding to the primary antibody. Protein bands were detected using the ECL chemiluminescence kit from Amersham as per the manufacturer's protocol.
# as §3
# [4] = tested on: Hsp70; test: Western blot of Hsp70 protein in avicin D treated Jurkat cells; type: cell-based, human
# Description: as §1, §2, §4, §3
# [5] = tested on: S. pombe cells; test: Detection of ubiquitinated proteins in S. pombe; type: cell-based, Schizosaccharomyces pombe; settings: wild type S. pombe, 20 μg/ml avicin G, after 90 minutes (1.5 hours), immunoblot
# Description: (§5) Standard yeast culture media and genetic methods were used (Alfa et al., 1993; Rose et al., 1990). S. pombe cultures were grown in either YEAU (0.5% yeast extract, 3% dextrose, 75 […]) or synthetic minimal medium (EMM) with appropriate supplements.
# S. pombe cultures were lysed with glass beads in PEM buffer (100 mM PIPES, 1 mM EGTA, 1 mM MgSO4, pH 6.9) containing 4 mM benzamide, 10 μM E64, 50 μM leupeptin, 1 μM pepstatin, 1 mM phenylmethanesulfonyl fluoride, and 2 μg/ml aprotinin essentially as described in (Yen et al., 2003). Equal amounts of protein were resolved by SDS-PAGE and subsequent immunoblotting using anti-ubiquitin mouse monoclonal antibody (Stressgen Biotechnologies).
# [6] = tested on: S. pombe; test: Effects of avicin G on the growth of S. pombe wild type and mutants; type: cell-based, Schizosaccharomyces pombe; settings: for sensitivity to avicin G relative to wild-type: 26° C.
# Description: FIGS. 10A and 10B: Effects of Avicin G on the Growth of S. pombe Mutants. Wild type, mts2-1 (mts2), mts3-1 (mts3), and nuc2-663 cells were spread on YEAU plates. Avicin G (25 jug) was then spotted onto the respective cell lawns and the plates were incubated at 26° C. for 5 days. The relative avicin G sensitivity of each strain, based on measurements of areas of avicin G-induced growth inhibition, was then determined, with wild-type cells being normalized to a value of 1 (FIG. 10A).
# as §5
# [7] = tested on: 20S activity; settings: general statement on proteasome inhibitors; cited from earlier work
smiles,measurement,setting,value
"CC(=O)N[C@@H](CSC(=O)[C@]1([C@@H](O)C(C)C)NC(=O)[C@H](C)[C@@H]1O)C(=O)O [lactacystin, reference compound]",effect of lactacystin on the avicin-induced decrease of his-ub-Hsp70,[1],sensitive to lactacystin
same,effect of lactacystin pretreatment on the avicin-induced decrease in Hsp90 protein,[2],totally reversed
same,effect of lactacystin on the avicin induced XIAP decrease,[3]; lactacystin 30 minutes prior to avicin D 4 hours,blocked
same,effect of lactacystin pretreatment on the avicin-induced decrease in Hsp70 protein,"[4]; lactacystin 10 μM 30 minutes, then avicin D 4 hours",totally reversed
"COC(=O)C[C@H](NC(=O)[C@H](C)NC(=O)[C@@H](NC(=O)OCc1ccccc1)C(C)C)C(=O)CF [zVAD-fmk, reference compound] (Cbz-Val-Ala-Asp(OMe)-CH2F)",block of avicin-induced XIAP degradation,[3]; zVAD-FMK 50 μM prior to avicin D 4 hours,−22%
same,effect of caspase inhibition on the avicin-induced degradation of Hsp70,[4]; zVAD-FMK 50 μM 30 minutes prior to avicin D 1 μM 4 hours,no significant effect
C=C[C@](C)(O)CC/C=C(\C)C(=O)O[C@H]1[C@H](O)[C@@H](O)[C@H](O[C@@](C)(C=C)CC/C=C(\CO)C(=O)O[C@H]2C[C@]3(C(=O)O[C@@H]4O[C@H](CO)[C@@H](O)[C@H](O)[C@H]4O[C@@H]4O[C@@H](C)[C@H](O[C@@H]5O[C@@H](CO)[C@H](O)[C@H]5O)[C@@H](O[C@@H]5O[C@H](CO)[C@@H](O)[C@H](O)[C@H]5O)[C@H]4O)[C@H](O)C[C@]4(C)C(=CC[C@@H]5[C@@]6(C)CC[C@H](O[C@@H]7O[C@H](CO[C@@H]8O[C@H](C)[C@H](O)[C@H](O)[C@H]8O[C@@H]8OC[C@@H](O)[C@H](O)[C@H]8O)[C@@H](O)[C@H](O)[C@H]7NC(C)=O)C(C)(C)[C@@H]6CC[C@]54C)[C@@H]3CC2(C)C)O[C@@H]1C [avicin G],levels of ubiquitinated proteins,[5],increase in the levels of ubiquitinated proteins
same,sensitivity to avicin G relative to wild-type,"[6]; mts2-1 26S proteasome mutant, 25 μg spotted, 5 days",only slightly increased
same,sensitivity to avicin G relative to wild-type,"[6]; mts3-1 26S proteasome mutant, 25 μg spotted, 5 days",only slightly increased
same,sensitivity to avicin G relative to wild-type,[6]; nuc2-663 APC mutant,markedly resistant
same,growth on YEAU containing 16 μg/ml avicin G,"[6]; nuc2-663 cells, 5 days at 26° C.",grew
CC(C)C[C@H](NC(=O)[C@H](Cc1ccccc1)NC(=O)c1cnccn1)B(O)O [PS341],suppression of 20S activity,[7],suppress 20S activity completely
